# pIC50: −log10 of the molar value.
# Legend:
# Type in all cases: cell-based, Menschliche
# Mφ [1] = assay: Cell culture and apoptosis test (counting YOPRO-1-stained apoptotic cells); settings: differentiated Mφ pretreated 30 min with compound, then mmLDL or TNF α (3 ng/ml); YOPRO-1 count after four hours; read-out: Apoptose (IC-50)
# Text: LDL wurde von gesunden, freiwilligen Testpersonen durch sequentielle Flotation in einer Ultrazentrifuge bei vorbestimmten Dichten erhalten, wie in Havel et al. (J. Clin. Invest. 34, 3145 (1955)) bzw. Deigner et al. (Arzneim.-Forsch./Drug Res. 44, 956, (1994)) beschrieben. Für den Apoptose-Test wurde LDL durch Dialyse gegen Tris-HCl-Puffer, der 20 µMol FeCl3 enthielt, für 48 Stunden minimal modifiziert (mmLDL), wie von Watson et al. (J. Clin. Invest. 95, 774 (1995) beschrieben.
# Menschliche, mononucleäre, periphere Blutzellen aus venösem Blut wurden isoliert, gezüchtet und, wie in Kinscherf et al. (The FASEB J. 11, 1317 (1997); The FASEB J. 12, 461 (1998)) beschrieben, bis zum Differenzieren zu Mφ belassen. Differenzierte Mφ wurden mit Lipoproteinmangelserum (P>1,21, durch Ultrazentrifugieren von fötalem Kälberserum hergestellt, wie in Havel et al. beschrieben) für 24 Stunden vor der Testdurchführung gezüchtet, mit der entsprechenden Verbindung für 30 Minuten bei den angeführten Konzentrationen vorbehandelt und anschließlich mLDL oder rekombinantem TNF α (3 ng/ml) in dem gleichen Medium ausgesetzt. Die Bestimmung der Apoptose wurde durch Zählen von YOPRO-1-gefärbten apoptotischen Zellen, wie in Idziorek et al. (J. Immunol. Methods 185, 249 (1995)) beschrieben, nach vier Stunden durchgeführt.
# sauren Sphingomyelinase = target: T1, sauren Sphingomyelinase (Homo sapiens, UniProt P17405); assay: SMase inhibition in cells (activity in cell lysates, BODIPY-FL-C5-sphingomyelin, HPLC); settings: for pIC50: human macrophages pretreated 30 min with compound, then 2 h oxidised LDL (27 µg/ml), lysate activity at pH 5,0, read-out: Hemmung der sauren Sphingomyelinase (Zellen) (IC-50)
# T1 construct: endogenous in cells; host or cells: human macrophages (treated with compound, then oxidised LDL; lysed, supernatant assayed)
# T1 sequence (P17405 47-631): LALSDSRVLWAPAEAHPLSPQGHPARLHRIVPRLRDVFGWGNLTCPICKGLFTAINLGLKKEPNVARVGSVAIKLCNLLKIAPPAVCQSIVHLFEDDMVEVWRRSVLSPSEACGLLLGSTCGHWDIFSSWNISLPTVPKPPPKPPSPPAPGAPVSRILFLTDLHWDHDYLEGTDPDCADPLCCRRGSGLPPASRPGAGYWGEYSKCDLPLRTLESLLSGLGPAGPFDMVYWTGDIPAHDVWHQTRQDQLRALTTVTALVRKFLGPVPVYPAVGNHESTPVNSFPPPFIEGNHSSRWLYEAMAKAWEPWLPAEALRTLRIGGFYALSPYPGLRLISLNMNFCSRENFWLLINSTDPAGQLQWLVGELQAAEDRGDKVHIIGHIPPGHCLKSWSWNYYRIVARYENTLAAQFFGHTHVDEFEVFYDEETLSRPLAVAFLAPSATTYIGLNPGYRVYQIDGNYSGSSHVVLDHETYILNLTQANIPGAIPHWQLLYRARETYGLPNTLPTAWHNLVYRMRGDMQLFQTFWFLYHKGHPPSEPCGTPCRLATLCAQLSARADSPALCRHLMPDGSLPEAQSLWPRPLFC
# Description: Menschliche Makrophagen wurden mit entsprechenden, in den erfindungsgemäßen Zusammensetzungen enthaltenen Verbindungen für 30 Minuten und anschließend zwei Stunden mit oxidiertem LDL (27 µg/ml) vorbehandelt. Anschließend wurde das Medium entfärbt, die Zellen mit vorgekühltem (4°C) PBS gewaschen und 15 Minuten mit Lysepuffer (NaAc, 250 mMol, pH 5,0, TritonX-100 0,2%) bei 4°C behandelt und zentrifugiert (18.000 g). Die Überstände (5 µl) wurden mit ARB-Puffer (NaAc, 250 mMol, pH 5,0) unter Erhalten einer Proteinkonzentration von 80 µg/ml verdünnt, 45 Minuten mit BODIPY®-FL-C5-sphingomyelin (8 nM) bei 37°C inkubiert. Anschließend wurden 150 µl Methanol (interner Standard: C5-BODIPY®-Säure) zugegeben. Die Proben wurden einer HPLC-Analyse (50% MeOH/10% Tris-HCl, pH 7,5, 10 mMol, 2 ml/min, E. Merck Lichrospher 125-4, 100-5 µMol RP-18, Fluoreszenzdetektion 503Ex/512Em) unterworfen.
# aSMase = assay: RT-PCR of aSMase expression in Mφ; settings: for mmLDL- oder Ceramid-induzierte Enzyminduktion: Mφ
# Description: Fig. 5 zeigt die RT-PCR von aSMase in Mφ. Es zeigt sich eine Expression von aSMase (687 bp) nach Inkubation (4 h) von Mφ mit steigenden mmLDL-Konzentrationen.
# (§1) Fig. 6 zeigt die Wirkung einer Vorbehandlung von Mφ mit einer Zusammensetzung die [3-(Carbazol-9-yl)-N-propyl]-[2-(4-methoxyphenyl)-ethyl]-methylamin (V6) enthält (2 µM, 30 min), auf die aSMase-Expression und die Apoptose in Mφ (Prozentanteil von apoptotischen Mφ, bestimmt durch YOPRO-1-Färbung nach Inkubation mit Medium oder C6-Ceramid (10 µM) mit oder ohne Vorbehandlung mit der Verbindung V6; Daten sind als Mittelwert ± SEM von drei Experimenten angegeben. *, P ≤ 0,05 vs. Kontrolle oder #, P ≤ 0,05 vs. mit C6-Ceramid behandelten Zellen (120 min)).
# (§2) Menschliche, mononucleäre, periphere Blutzellen aus venösem Blut wurden mittels Ficoll-Paque (Sigma, Deisenhofen, BR Deutschland) Dichtegradientenzentrifugierung isoliert. Mφ wurden mmLDL (27 µg/ml), C6-Ceramid (10 µM) bzw. H2O2 (30 µM) unterworfen. Apoptotische Zellen wurden mittels YOPRO-1-Färbung (s. Idziorek et al, J. Immunol. Methods, 185, 1995, 249-258) und/oder mittels TUNEL-Technik (Quantum Appligene, Heidelberg, BR Deutschland) identifiziert. Die Bestimmung der Apoptose (Prozentanteil apoptotischer Zellen) wurde durch Zählen von YOPRO-1-gefärbten apoptotischen Zellen unter Verwendung eines Mikroskops, ausgestattet mit einer Quecksilberlampe und einer Fluoreszenzeinheit in Kombination mit einem Computer-unterstützten Morphometriesystem, quantifiziert.
# Für die Amplifizierung der aSMase waren die Primer und die Bedingungen wie folgt: 5'-[…]-3' (vorwärts) und 5'-[…]-3', 94°C, 60°C, 72°C, jeweils 1 min, 40 Zyklen (Sequenzanalyse des gereinigten PCR-Produkts durch das Deutsche Krebsforschungszentrum, Heidelberg, BR Deutschland, bestätigte die Amplifizierung des erwarteten aSMase-Fragments).
# Mφ [2] = assay: Apoptosis in Mφ induced by C6-ceramide or mmLDL (YOPRO-1 staining / TUNEL); settings: for programmierten Zelltod in Mφ: mmLDL or ceramide
# Description: as §1, §2
# Ceramid = assay: Ceramide concentration in cells (diacylglycerol-kinase phosphorylation); settings: Mφ, mmLDL or ceramide
# Text: Die Ceramidkonzentrationen in den Zellen wurden nach Diacylglycerolkatalysierter Phosphorylierung, wie in Kinscherf et al. (FEBS, 405, 55 (1997)) und Dressler et al. (J. Biol. Chem. 265, 14917 (1990)) beschrieben, bestimmt.
# Figur 1 zeigt in einem Diagramm die Phospho-Ceramid-Konzentration (cpm/spot) nach ox. LDL-Stimulierung zum einen ohne (ox) und zum anderen unter Zugabe entsprechender Verbindungen mit der allgemeinen Formel (I), die in den erfindungsgemäßen pharmazeutischen Zusammensetzungen enthalten sein können, nämlich [2-(3,4-Dimethoxyphenyl)-ethyl]-[3-(2-chlorphenothiazin-10-yl)-N-propyl]-methylamin (V3) und [3-(Carbazol-9-yl)-N-propyl]-[2-(4-methoxyphenyl)-ethyl]methylamin (V6). Ferner ist auch die Phospho-Ceramid-Konzentration in Folge der Stimulation durch TNF angegeben.
Compound,pIC50 (Mφ [1]),pIC50 (sauren Sphingomyelinase),other results
"COc1ccc(CCN(C)CCCN2c3ccccc3Oc3ccccc32)cc1OC [V37, [2-(3,4-Dimethoxyphenyl)-ethyl]-methyl-(phenoxazin-10-yl-propyl)amin]",5.60,,
"COc1ccc(CCN(C)C(F)(F)C(F)(F)C(F)(F)C(F)(F)n2c3ccccc3c3ccccc32)cc1 [V32, (4-Carbazol-9-yl-1,1,2,2,3,3,4,4-octafluorbutyl)-[2-(4-methoxyphenyl)-ethyl]-methylamin]",4.74,,
"COc1ccc(CCN2C(C)CN(CCCN3c4ccccc4Oc4ccccc43)CC2C)cc1 (stereo not drawn) [V36, 10-(3-{4-[2-(4-Methoxyphenyl)-ethyl]-3,5-dimethylpiperazin-1-yl}-propyl)-10H-phenoxazin]",6.00,,
"COc1ccc(CCN2CCN(CCn3c4ccccc4c4ccccc43)CC2)cc1 [V18, N-[2-(Carbazol-9-yl)-N-ethyl]-N'-[2-(4-methoxyphenyl)-ethyl]piperazin]",,4.48,
"COc1ccc(CCN(C)CCCn2c3ccccc3c3ccccc32)cc1 [V6, [3-(Carbazol-9-yl)-N-propyl]-[2-(4-methoxyphenyl)-ethyl]methylamin]",,5.05,"Aktivierung des Enzyms (sauren Sphingomyelinase; ceramide-treated Mφ, measured in cell lysates): verhinderte; durch mmLDL (27 µg/ml) initiierten Anstieg der aSMase-Aktivität in Zelllysaten (sauren Sphingomyelinase; pretreatment of Mφ, mmLDL 27 µg/ml, basal activity 2,18 nmol/h x mg): vollständig verhindert; mmLDL- oder Ceramid-induzierte Enzyminduktion (aSMase): inhibieren; Ceramid-vermittelte aSMase-Transkription (aSMase; pretreatment of Mφ (2 µM, 30 min), C6-Ceramid (10 µM)): verhinderte; programmierten Zelltod in Mφ (Mφ [2]): vermindert; Induktion von Apoptose (Mφ [2]; pretreatment of Mφ (2 µM, 30 min), C6-Ceramid (10 µM), YOPRO-1): verhinderte; Stimulierung der Ceramidbildung (Ceramid): inhibieren"
"COc1ccc(Cn2c(=O)c3ccccc3n(Cc3ccc(OC)cc3)c2=O)cc1 [1,3-Bis-(4-methoxybenzyl)-1H-chinazolin-2,4-dion]",6.30,,
"10-(3-{4-[2-(3,-Dimethoxyphenyl)-ethyl]-3,5-dimethylpiperazin-1-yl}-propyl)-9H-carbazol [V42]",5.40,,
"COc1ccc(CCN(C)CCn2c3ccccc3c3ccccc32)cc1 [V23, [2-(Carbazol-9-yl)-N-ethyl]-[2-(4-methoxyphenyl)-ethyl]methylamin]",,5.10,
"COc1ccc(CCN(C)CCC=C2c3ccccc3CCc3ccccc32)cc1OC [V38, [3-(10,11-Dihydro-dibenzo[a,d]cyclohepten-5-yliden)-propyl]-[2-(3,4-dimethoxyphenyl)-ethyl]methylamin]",5.22,,
"COc1ccc(CCN(C)CCCN(c2ccccc2)c2ccccc2)cc1OC [V35, N-[2-(3,4-Dimethoxyphenyl)-ethyl]-N-methyl-N',N'-diphenylpropan-1,3-diamin]",5.22,,
"COc1ccc(CCN(C)CCCN2c3ccccc3Sc3ccc(Cl)cc32)cc1 [V4, [2-(4-Methoxyphenyl)-ethyl]-[3-(2-chlorphenothiazin-10-yl)-N-propyl]-methylamin]",5.30,,
"COc1ccc(CCN(C)CCCN2c3ccccc3Sc3ccc(Cl)cc32)cc1OC [V3, [2-(3,4-Dimethoxyphenyl)-ethyl]-[3-(2-chlorphenothiazin-10-yl)-N-propyl]-methylamin]",5.70,5.22,mmLDL- oder Ceramid-induzierte Enzyminduktion (aSMase): inhibieren; programmierten Zelltod in Mφ (Mφ [2]): vermindert; Stimulierung der Ceramidbildung (Ceramid): inhibieren
"COc1ccc(CCNCCCNC2c3ccccc3CCc3ccccc32)cc1 [V22, N-(5H-Dibenzo[a,d]cycloheptan-5-yl)-N'-[2-(4-methoxyphenyl)-ethyl]-propylendiamin]",,5.00,
"COc1ccc(CCN(C)CCN2c3ccccc3CCc3ccccc32)cc1 [V16, [2-(10,11-Dihydro-dibenzo[b,f]azepin-5-yl)-N-ethyl]-[2-(4-methoxyphenyl)-ethyl]methylamin]",,4.80,
"COc1ccc(CCN(C)CCCn2c3ccccc3c3ccccc32)cc1OC [V5, [3-(Carbazol-9-yl)-N-propyl]-[2-(3,4-dimethoxyphenyl)-ethyl]methylamin]",,5.10,
"COc1ccc(Cn2c(=O)[nH]c3ccccc3c2=O)cc1 [3-(4-Methoxybenzyl)-1H-chinazolin-2,4-dion]",5.52,,
"COc1ccc(CCN2CCCN(C3c4ccccc4CCc4ccccc43)C2)cc1OC [V41, N-(10,11-Dihydro-5H-dibenzo[a,d]cyclohepten-5-yl)-N'-[2-(3,4-dimethoxyphenyl)-ethyl]-hexahydropyrimidin]",5.15,,
"COc1ccc(CCN(C)CCN2c3ccccc3CCc3ccccc32)cc1OC [V15, [2-(10,11-Dihydro-dibenzo[b,f]azepin-5-yl)-N-ethyl]-[2-(3,4-dimethoxyphenyl)-ethyl]methylamin]",,4.85,
"COc1ccc(CCN(C)CCC=C2c3ccccc3CCc3ccccc32)cc1 [V31, [3-(10,11-Dihydro-dibenzo[a,d]cyclohepten-5-yliden)-propyl]-[2-(4-methoxyphenyl)-ethyl]methylamin]",5.82,4.70,
COc1ccc(Cn2c3ccccc3c3ccccc32)cc1 [9-(4-Methoxybenzyl-9H-carbazol)],6.00,,
"COc1ccc(CCN(C)CCCN(c2ccccc2)c2ccccc2)cc1 [V34, N-[2-(4-Methoxyphenyl)-ethyl]-N-methyl-N',N'-diphenylpropan-1,3-diamin]",5.52,,

# Source: patent EP1207886B1, “SPHINGOMYELINASE INHIBITORS AS AGENTS WITH ANTIAPOPTOTIC AND ANTISEPTIC ACTION” (Biofrontera Pharmaceuticals GmbH, priority 1999, dated 2000)
